# Assay results as given in US7737251B2, “Long lasting glucagon-like peptide 2 (GLP-2) for the treatment of gastrointestinal diseases and disorders” (ConjuChem Biotechnologies Inc., priority 2001, dated 2010).
# Ends that are not written are not given here. * marks the point of attachment. Propanoyl(3-maleimido) = O=C1C=CC(=O)N1CCC(=O)*
# What was measured:
# Assay type in all cases: in vivo
# normal mice = assay: Intestinotrophic activity in normal mice model (small intestine weight); details: 5 μg/dose sc twice daily for 10 days, male CD-1 mice; for small intestine weight: vs saline control
# Procedure: The intestinotrophic activity of the compounds of Examples 1-8 has been evaluated in a normal mice model. Five-week-old male CD-1 mice (20-25 g) were treated twice daily for 10 consecutive days with 5 μg/dose of each compound dissolved in 0.9% NaCl aqueous solution. The compounds were administered via subcutaneous injections in the dorsal-lateral area of the lumbar region. Control animals received 0.25 ml/dose of 0.9% NaCl.
# On day 11, mice were fasted for 4 hours and anesthetized with CO2 Small intestines were removed, cleaned and weighed.
# CD-1 mice = assay: Dose-response with selected Gly2-GLP-2 analogues (small and large intestine weight); details: 5, 25 or 50 μg/dose sc twice daily for 10 days, female CD-1 mice
# Procedure: Six-week-old female CD-1 mice (20-25 g) were treated twice daily for 10 consecutive days with 5, 25 or 50 μg/dose of the compounds of Examples 5, 7 and 8. The compounds were dissolved in 0.083M sodium phosphate buffer, pH 6.8 and administered via subcutaneous injections in the dorsal-lateral area of the lumbar region. Control animals received 0.25 ml/dose of sodium phosphate buffer.
# On day 11, fed mice were anesthetized with Halothane™ and small intestine, large intestine and stomach were collected from each mouse after laparatomy. The tissues were then cleaned and weighed.
# [1] = Pharmacokinetic profiles in rats (plasma radioimmunoassay); details: male, rat, single 500 nmol/kg, Sprague-Dawley rats; for half-life: harmonic mean; for Vd: read-out: Vss; for Tmax: expressed as media; for bioavailability: read-out: F (absolute bioavailability)
# Procedure: The pharmacokinetic profiles of the compounds of Examples 5 and 8 were studied in normal rats following a single intravenous or subcutaneous injection. Plasma concentrations were determined by radioimmunoassay with a commercial antibody anti-human GLP-2.
# Test articles were dissolved in 0.083M sodium phosphate buffer, pH 6.8 and administered to eight to eleven-week-old male Sprague-Dawley rats by a single intravenous or subcutaneous injection at a dose level of 500 nmol/kg. Serial blood samples (I50-200 μl) were collected into tubes containing EDTA and DPP-IV inhibitor at the following time-points: pre-dose, 5 and 30 min., and 1, 2, 4, 8, 24, 48, 72 and 96 hours post-test agent administration. Whole blood was centrifuged and subsequent plasma samples were recovered and stored at −80° C. until analysis.
# The plasma concentrations of the compounds of Examples 5 and 8 were determined by radioimmunoassay using a rabbit polyclonal antibody anti-human GLP-2 (Peninsula Laboratories, RGG7167) and iodinated human GLP-2 as tracer.
# Descriptive pharmacokinetic parameters were determined by standard model-independent methods (Gibaldi and Perrier, 1982) based on the analysis of plasma concentration-time data. Pharmacokinetic analyses were performed using macros written for Microsoft Excel 97. The following parameters were calculated: • Cmax is the maximum plasma concentration; • Tmax is the time when Cmax is observed; • T1/2 is the terminal half-life; • AUC(0-inf) is the area under the plasma concentration-time curve from time zero to time infinity; • F is the absolute bioavailability, • CL is the systemic clearance; • MRT is mean residence time; and • Vss is the steady-state volume of distribution.
# rat albumin = target: T1, rat albumin (Rattus norvegicus, UniProt P02770); assay: Immunoblotting of rat plasma for conjugation to plasma proteins
# T1 construct: from tissue; host or cells: rat plasma (Sprague-Dawley rats, in vivo conjugation after iv/sc dosing)
# Procedure: Plasma samples obtained from the rat pharmacokinetic study were analyzed by immunoblotting. Plasma proteins were separated under non-reducing conditions using sodium-dodecyl-sulfate polyacrylamide gel electrophoresis (SDS-PAGE) according to Laemmli (1970). Plasma samples were first diluted 1:10 with distilled water and 20 μl was mixed with 10 μl of 3× Laemmli buffer (30 mM TrisCl, 3 mM EDTA, 15% SDS, pH 6.8) and 2 μl of bromophenol blue solution (0.1% bromophenol blue, 50% glycerol). Mixtures were placed in a boiling water bath for 3 min and loaded on gel. Proteins were first concentrated in a 3% stacking gel and then migrated through 8% separating gel using a mini-gel system with 10-well combs (1.5×4.8 mm). Electrophoresis was run under constant current at 15 mA/gel to concentrate proteins in stacking gel and at 20 mA/gel in separating gel for approximately 1.5 h.
# Proteins were subsequently transferred onto a nitrocellulose membrane using a semi-dry transfer apparatus, for 1 hour at 100 mA/gel. Transfer efficacy was checked by reversible staining of the membrane with 1% red Ponceau™ solution.
# Membranes were saturated overnight at 4° C. with Tris Buffered Saline (TBS) containing 5% low fat milk. […]
# T1 sequence (P02770 25-608): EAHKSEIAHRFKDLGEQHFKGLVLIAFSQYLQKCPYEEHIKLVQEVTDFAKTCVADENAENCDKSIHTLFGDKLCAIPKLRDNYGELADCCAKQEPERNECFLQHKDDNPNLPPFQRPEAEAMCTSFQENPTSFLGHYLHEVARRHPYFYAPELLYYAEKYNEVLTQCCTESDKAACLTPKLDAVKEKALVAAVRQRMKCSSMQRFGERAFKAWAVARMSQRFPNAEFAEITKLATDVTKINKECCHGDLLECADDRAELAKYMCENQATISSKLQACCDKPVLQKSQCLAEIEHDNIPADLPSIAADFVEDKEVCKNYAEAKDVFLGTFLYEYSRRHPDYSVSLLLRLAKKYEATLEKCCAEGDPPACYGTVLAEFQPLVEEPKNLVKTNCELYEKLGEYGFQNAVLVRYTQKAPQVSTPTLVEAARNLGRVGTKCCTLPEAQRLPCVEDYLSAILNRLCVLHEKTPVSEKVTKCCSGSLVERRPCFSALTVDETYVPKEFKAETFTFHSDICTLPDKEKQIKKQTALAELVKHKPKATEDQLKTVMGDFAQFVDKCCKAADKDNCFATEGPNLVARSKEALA
molecule,measurement,setting,value
CC[C@H](C)[C@H](NC(=O)[C@H](Cc1ccccc1)NC(=O)[C@H](CC(=O)O)NC(=O)[C@H](CCCNC(=N)N)NC(=O)[C@H](C)NC(=O)[C@H](C)NC(=O)[C@H](CC(C)C)NC(=O)[C@H](CC(N)=O)NC(=O)[C@H](CC(=O)O)NC(=O)[C@H](CC(C)C)NC(=O)[C@@H](NC(=O)[C@@H](NC(=O)[C@H](CC(N)=O)NC(=O)[C@H](CCSC)NC(=O)[C@H](CCC(=O)O)NC(=O)[C@H](CC(=O)O)NC(=O)[C@H](CO)NC(=O)[C@H](Cc1ccccc1)NC(=O)[C@H](CO)NC(=O)CNC(=O)[C@H](CC(=O)O)NC(=O)CNC(=O)[C@@H](N)Cc1c[nH]cn1)[C@@H](C)O)[C@@H](C)CC)C(=O)N[C@@H](CC(N)=O)C(=O)N[C@@H](Cc1c[nH]c2ccccc12)C(=O)N[C@@H](CC(C)C)C(=O)N[C@H](C(=O)N[C@@H](CCC(N)=O)C(=O)N[C@H](C(=O)N[C@@H](CCCCN)C(=O)N[C@H](C(=O)N[C@H](C(=O)N[C@@H](CC(=O)O)C(N)=O)[C@@H](C)O)[C@@H](C)CC)[C@@H](C)O)[C@@H](C)CC [Example 5],intestinotrophic effects compared to the native GLP-2 peptides of Examples 1 and 3,normal mice,more pronounced intestinotrophic effects
same,small intestine weight,normal mice,Significant increases
same,"dose-response, large intestine weight",CD-1 mice,no dose-response
same,"dose-response, small intestine weight",CD-1 mice,No dose-response
same,AUC(0-inf),[1]; IV,0.626 µM·h
same,Cmax,[1]; IV,1560 nM
same,MRT,[1]; IV,0.3 h
same,clearance,[1]; IV,13.9 mL/min/kg
same,half-life,[1]; IV,1.5 h
same,Vd,[1]; IV,0.25 L/kg
same,AUC(0-inf),[1]; SC,0.205 µM·h
same,Cmax,[1]; SC,159 nM
same,Tmax,[1]; SC,0.5 h
same,half-life,[1]; SC,0.9 h
same,bioavailability,[1]; SC,32.8%
CC[C@H](C)[C@H](NC(=O)[C@H](Cc1ccccc1)NC(=O)[C@H](CC(=O)O)NC(=O)[C@H](CCCNC(=N)N)NC(=O)[C@H](C)NC(=O)[C@H](C)NC(=O)[C@H](CC(C)C)NC(=O)[C@H](CC(N)=O)NC(=O)[C@H](CC(=O)O)NC(=O)[C@H](CC(C)C)NC(=O)[C@@H](NC(=O)[C@@H](NC(=O)[C@H](CC(N)=O)NC(=O)[C@H](CCSC)NC(=O)[C@H](CCC(=O)O)NC(=O)[C@H](CC(=O)O)NC(=O)[C@H](CO)NC(=O)[C@H](Cc1ccccc1)NC(=O)[C@H](CO)NC(=O)CNC(=O)[C@H](CC(=O)O)NC(=O)CNC(=O)[C@@H](N)Cc1c[nH]cn1)[C@@H](C)O)[C@@H](C)CC)C(=O)N[C@@H](CC(N)=O)C(=O)N[C@@H](Cc1c[nH]c2ccccc12)C(=O)N[C@@H](CC(C)C)C(=O)N[C@H](C(=O)N[C@@H](CCC(N)=O)C(=O)N[C@H](C(=O)N[C@@H](CCCCN)C(=O)N[C@H](C(=O)N[C@H](C(=O)N[C@@H](CC(=O)O)C(=O)N[C@@H](CCCCNC(=O)CCN1C(=O)C=CC1=O)C(N)=O)[C@@H](C)O)[C@@H](C)CC)[C@@H](C)O)[C@@H](C)CC [Example 8],conjugation to rat albumin,"rat albumin; post-iv administration, anti-GLP-2 immunoblot",conjugates efficiently to rat albumin
same,signal on albumin,"rat albumin; post-sc administration, anti-GLP-2 immunoblot (not shown)",weak signal
same,intestinotrophic effects compared to the native GLP-2 peptides of Examples 1 and 3,normal mice,more pronounced intestinotrophic effects
same,small intestine weight,normal mice,Significant increases
same,"dose-response, large intestine weight",CD-1 mice,possible dose-response
same,"dose-response, small intestine weight",CD-1 mice,possible dose-response
same,AUC(0-inf),[1]; IV,89.4 µM·h
same,Cmax,[1]; IV,10100 nM
same,MRT,[1]; IV,16.9 h
same,clearance,[1]; IV,0.0942 mL/min/kg
same,half-life,[1]; IV,16.2 h
same,Vd,[1]; IV,0.0953 L/kg
same,AUC(0-inf),[1]; SC,13.5 µM·h
same,Cmax,[1]; SC,651 nM
same,Tmax,[1]; SC,0.5 h
same,half-life,[1]; SC,23.8 h
same,bioavailability,[1]; SC,15.2%
His-Ala-Asp-Gly-Ser-Phe-Ser-Asp-Glu-Met-Asn-Thr-Ile-Leu-Asp-Asn-Leu-Ala-Ala-Arg-Asp-Phe -Ile-Asn-Trp-Leu-Ile-Gln-Thr-Lys-Ile-Thr-Asp-CONH2 (HADGSFSDEMNTILDNLAARDFINWLIQTKITD-NH2) [Example 1],small intestine weight,normal mice,Significant increases
His-Ala-Asp-Gly-Ser-Phe-Ser-Asp-Glu-Met-Asn-Thr-Ile-Leu-Asp-Asn-Leu-Ala-Ala-Arg-Asp-Phe -Ile-Asn-Trp-Leu-Ile-Gln-Thr-Lys-Ile-Thr-Asp-Lys(MPA)-CONH2 (HADGSFSDEMNTILDNLAARDFINWLIQTKITDK; MPA; C-terminal amide; analog of GLP-2; VARIANT (34)...(34): MPA attached to the Lys residue; AMIDATION (34)...(34)) [Example 3],small intestine weight,normal mice,Significant increases
His-Gly-Asp-Gly-Ser-Phe-Ser-Asp-Glu-Met-Asn-Thr-Ile-Leu-Asp-Lys(MPA)-Leu-Ala-Ala-Arg -Asp-Phe-Ile-Asn-Trp-Leu-Ile-Gln-Thr-Lys-Ile-Thr-Asp-CONH2 (HGDGSFSDEMNTILDK(Propanoyl(3-maleimido))LAARDFINWLIQTKITD-NH2; N-terminus assumed; SMILES CC[C@H](C)[C@H](NC(=O)[C@H](Cc1ccccc1)NC(=O)[C@H](CC(=O)O)NC(=O)[C@H](CCCNC(=N)N)NC(=O)[C@H](C)NC(=O)[C@H](C)NC(=O)[C@H](CC(C)C)NC(=O)[C@H](CCCCNC(=O)CCN1C(=O)C=CC1=O)NC(=O)[C@H](CC(=O)O)NC(=O)[C@H](CC(C)C)NC(=O)[C@@H](NC(=O)[C@@H](NC(=O)[C@H](CC(N)=O)NC(=O)[C@H](CCSC)NC(=O)[C@H](CCC(=O)O)NC(=O)[C@H](CC(=O)O)NC(=O)[C@H](CO)NC(=O)[C@H](Cc1ccccc1)NC(=O)[C@H](CO)NC(=O)CNC(=O)[C@H](CC(=O)O)NC(=O)CNC(=O)[C@@H](N)Cc1c[nH]cn1)[C@@H](C)O)[C@@H](C)CC)C(=O)N[C@@H](CC(N)=O)C(=O)N[C@@H](Cc1c[nH]c2ccccc12)C(=O)N[C@@H](CC(C)C)C(=O)N[C@H](C(=O)N[C@@H](CCC(N)=O)C(=O)N[C@H](C(=O)N[C@@H](CCCCN)C(=O)N[C@H](C(=O)N[C@H](C(=O)N[C@@H](CC(=O)O)C(N)=O)[C@@H](C)O)[C@@H](C)CC)[C@@H](C)O)[C@@H](C)CC) [Example 7],intestinotrophic effects compared to the native GLP-2 peptides of Examples 1 and 3,normal mice,more pronounced intestinotrophic effects
same,small intestine weight,normal mice,Significant increases
same,"dose-response, large intestine weight",CD-1 mice,no dose-response
same,"dose-response, small intestine weight",CD-1 mice,No dose-response
